Data on 13 compounds can be found in patent publication US8008061B2, “Trophic conversion of obligate phototrophic algae through metabolic engineering” (Martek Biosciences Corporation, priority 2000, dated 2011).

What all share (format): cell-based
In one test the test system is Cylindrotheca fusiformis. In words: Antibiotic sensitivity in diatoms, growth on solid media. Particulars: C. fusiformis; for lowest concentration of the antibiotic per ml required for cell death or the highest concentration tested: Table C, 100% I.O. media, 2 weeks of illumination; for lowest concentration of antibiotic per ml required for cell death or the lowest concentration tested: media with reduced salinity, 25% of normal seawater. The protocol:
(§1) The diatoms Phaeodactylum tricornutum, Cylindrotheca fusiformis, Cyclotella cryptica and Nitzschia alba were extensively tested for sensitivity to a series of antibiotics for which resistance genes are available, and the lowest concentrations which completely abrogate growth were determined for each antibiotic (Table C). […] These include antibiotics such as G418, Hygromycin, Kanamycin and Spectinomycin, which are routinely utilized for selection of other eukaryotic organisms.
(§2) The effective concentration range of the antibiotic in most cases was lowered by a factor of 10.
(§3) Cells of each diatom species were plated on solid media at salinity equivalents of 25-100% I.O. media, with a gradient of antibiotic concentrations. After 2 weeks of illumination the growth of the cells was assessed and the concentration of antibiotic required for cell death was determined. (Table D).

Test [1] has as its system Phaeodactylum tricornutum. Described as above. The settings on record: P. tricornutum; for lowest concentration of the antibiotic per ml required for cell death or the highest concentration tested: Table C, 100% I.O. media, 2 weeks of illumination. The protocol: as §1, §2, §3
Another test relates to Cyclotella cryptica. The description is as above. The settings on record: C. cryptica; for lowest concentration of the antibiotic per ml required for cell death or the highest concentration tested: Table C, 100% I.O. media, 2 weeks of illumination. The protocol: as §1, §2
After 2 weeks of illumination the growth of the cells was assessed and the concentration of antibiotic required for cell death was determined. (Table D).

The subject of test [2] is diatoms Phaeodactylum tricornutum, Cylindrotheca fusiformis, Cyclotella cryptica and Nitzschia alba. In words: Antibiotic sensitivity, statements for the diatoms tested together. The settings on record: for effect on growth of the diatoms: compared to effectiveness in other eukaryotic organisms; for cell death: 100% I.O. media, the diatoms tested. The protocol: as §1, §2, §3

For the next test, the system named is Nitzschia alba. In words: Antibiotic sensitivity in diatoms, growth on solid media. Particulars: N. alba; Table C; 100% I.O. media; 2 weeks of illumination. Details: unit not given here. The protocol:
as §1, §3

With `O=C(N[C@H](CO)[C@H](O)c1ccc([N+](=O)[O-])cc1)C(Cl)Cl` [Chloramphenicol], the “lowest concentration of the antibiotic per ml required for cell death or the highest concentration tested” value with Cylindrotheca fusiformis is recorded as 100 mg per ml; in test [1], 200 mg per ml; in the test with Cyclotella cryptica it was 50 mg per ml.
Taken in the same sequence, the figures for `CC[C@H]1OC(=O)[C@H](C)[C@@H](O[C@H]2C[C@@](C)(OC)[C@@H](O)[C@H](C)O2)[C@H](C)[C@@H](O[C@@H]2O[C@H](C)C[C@H](N(C)C)[C@H]2O)[C@](C)(O)C[C@@H](C)C(=O)[C@H](C)[C@@H](O)[C@]1(C)O` [Erythromycin] were 100 mg per ml, 100 mg per ml and 50 mg per ml.
In the case of `CN[C@@H]1[C@@H](O)[C@@H](O[C@@H]2[C@@H](O)[C@H](O[C@H]3O[C@H]([C@@H](C)O)[C@@H](O)[C@H](O)[C@H]3N)[C@@H](N)C[C@H]2N)OC[C@]1(C)O` [G418], in the test on Cylindrotheca fusiformis, the “lowest concentration of the antibiotic per ml required for cell death or the highest concentration tested” value is reported as greater than 1 mg per ml. Besides, the “effect on growth of the diatoms” value in test [2] is recorded as “no significant effect on growth or were effective only at very high concentrations”.
Regarding `NC[C@H]1O[C@H](O[C@H]2[C@H](O)[C@@H](O[C@H]3O[C@H](CO)[C@@H](O)[C@H](N)[C@H]3O)[C@H](N)C[C@@H]2N)[C@H](O)[C@@H](O)[C@@H]1O` [Kanamycin], the “lowest concentration of the antibiotic per ml required for cell death or the highest concentration tested” value (with Cylindrotheca fusiformis; in test [1]; with Cyclotella cryptica) was greater than 1 mg per ml throughout.
`COc1ccc(C[C@H](N)C(=O)N[C@H]2[C@@H](O)[C@H](n3cnc4c(N(C)C)ncnc43)O[C@@H]2CO)cc1` [Puromycin]: the “lowest concentration of the antibiotic per ml required for cell death or the highest concentration tested” value in the test with Cylindrotheca fusiformis is on record as 100 mg per ml; in test [1], 200 mg per ml; in the test with Cyclotella cryptica it was 100 mg per ml.
Regarding `CN[C@@H]1[C@H](O)[C@H](NC)[C@H]2O[C@@]3(O)C(=O)C[C@@H](C)O[C@H]3O[C@@H]2[C@H]1O` [Spectinomycin], the “lowest concentration of the antibiotic per ml required for cell death or the highest concentration tested” value with Cylindrotheca fusiformis and in the test on Cyclotella cryptica was greater than 1 mg per ml in each case. In test [2], the “effect on growth of the diatoms” value is “no significant effect on growth or were effective only at very high concentrations”.
In the case of `[H]/N=C(/N)N[C@H]1[C@H](O)[C@@H](O)[C@H](O[C@@H]2O[C@@H](C)[C@](O)(C=O)[C@H]2O[C@@H]2O[C@@H](CO)[C@H](O)[C@@H](O)[C@@H]2NC)[C@@H](N/C(N)=N\[H])[C@@H]1O` [Streptomycin], the “lowest concentration of the antibiotic per ml required for cell death or the highest concentration tested” value (in the test on Cylindrotheca fusiformis; in test [1]; with Cyclotella cryptica) was greater than 1 mg per ml each time.
Take `Cc1c(N)nc([C@H](CC(N)=O)NC[C@H](N)C(N)=O)nc1C(=O)N[C@H](C(=O)N[C@H](C)[C@@H](O)[C@H](C)C(=O)N[C@H](C(=O)NCCC1=N[C@@H](c2nc(C(=O)NCCCCN=C(N)N)cs2)CS1)[C@@H](C)O)[C@@H](O[C@@H]1O[C@@H](CO)[C@@H](O)[C@H](O)[C@@H]1O[C@H]1O[C@H](CO)[C@@H](O)[C@H](OC(N)=O)[C@@H]1O)c1cnc[nH]1` [Zeocin]: the “lowest concentration of the antibiotic per ml required for cell death or the highest concentration tested” value in the test on Nitzschia alba was greater than 250; with Cyclotella cryptica it was 250 mg per ml. The cell death entry in test [2] is on record as “resulted in cell death”.
In the case of Bleomycin, the “lowest concentration of the antibiotic per ml required for cell death or the highest concentration tested” value with Cylindrotheca fusiformis was greater than 50 mg per ml.
Take Gentamicin: the “lowest concentration of the antibiotic per ml required for cell death or the highest concentration tested” value (in the test with Cylindrotheca fusiformis; in test [1]; with Cyclotella cryptica) was greater than 1 mg per ml in each case.
In the case of Neomycin, the results for the “lowest concentration of the antibiotic per ml required for cell death or the highest concentration tested” value with Cylindrotheca fusiformis, in the test on Nitzschia alba and in the test on Cyclotella cryptica were greater than 1 mg per ml, greater than 1 and greater than 1 mg per ml, respectively.
Take Nourseothricin: the results for the “lowest concentration of the antibiotic per ml required for cell death or the highest concentration tested” value in the test on Cylindrotheca fusiformis, in the test with Nitzschia alba and in the test with Cyclotella cryptica were greater than 250 mg per ml, greater than 250 and greater than 250 mg per ml, respectively. The “lowest concentration of antibiotic per ml required for cell death or the lowest concentration tested” value with Cylindrotheca fusiformis is given as <10 mg (25%) mg per ml.
On to Phleomycin, for which the “lowest concentration of antibiotic per ml required for cell death or the lowest concentration tested” value is <5 mg (25%) mg per ml in the test on Cylindrotheca fusiformis; <5 mg (25%) mg per ml in test [1] (media with reduced salinity, 25% of normal seawater); <5 mg (10%) mg per ml in the test with Cyclotella cryptica (media with reduced salinity, 10% of normal seawater). For the same compound, the “lowest concentration of the antibiotic per ml required for cell death or the highest concentration tested” value in the test with Cyclotella cryptica was found to be 25 mg per ml. Also, in test [2], the cell death result is listed as “resulted in cell death”.
